Target: T1, human 11β-HSD1 (Homo sapiens, UniProt P28845)
T1 construct: host or cells: microsome fraction
Test: Enzymatic 11beta-HSD1 test (SPA-based detection)
Format: biochemical
Conditions: human 11β-HSD1 microsome fraction, [1,2-3H]-cortisone, NADPH, 37° C. 1 hour
In short: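 Human 11β-HSD1 microsomes (0.2 µg protein) converted [1,2-3H]-cortisone ([…]) for 1 h at 37 °C. The reaction buffer was HEPES/KCl/NaCl/MgCl2 with 0.25 mM NADPH, with compounds added in DMSO. The reaction was stopped with SPA beads, anti-cortisol monoclonal antibody and 0.01 mM SSR110887; after 1 h at room temperature, [3H]-cortisol was scintillation-counted.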

T1 sequence (P28845 whole entry): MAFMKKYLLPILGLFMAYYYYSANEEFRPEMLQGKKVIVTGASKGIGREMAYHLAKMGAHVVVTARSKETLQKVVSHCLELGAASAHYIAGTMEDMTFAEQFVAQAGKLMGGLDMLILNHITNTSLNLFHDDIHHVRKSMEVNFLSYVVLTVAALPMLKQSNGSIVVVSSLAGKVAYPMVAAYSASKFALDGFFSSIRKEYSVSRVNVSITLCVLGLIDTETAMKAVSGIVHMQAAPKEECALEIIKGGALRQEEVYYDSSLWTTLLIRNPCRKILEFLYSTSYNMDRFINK

Row | SMILES | IC50 [µM]
1 | C[C@H](NC1=NS(=O)(=O)[C@H](c2ccc(-c3cccc(C(N)=O)c3)cc2)C(C)(C)O1)c1ccccc1F [Example 175, 4′-{(R)-2-[(S)-1-(2-fluorophenyl)-ethylamino]-6,6-dimethyl-4,4-dioxo-5,6-dihydro-4H-4lambda6-[1,4,3]oxathiazin-5-yl}-biphenyl-3-carboxamide] | 0.02
2 | C[C@H](NC1=NS(=O)(=O)C(c2ccc(-c3cccc(C(N)=O)c3)nc2)C(C)(C)O1)c1ccccc1F (stereo partly drawn) [Example 176, 3-(5-{2-[(S)-1-(2-fluor-phenyl)-ethylamino]-6,6-odimethyl-4,4-dioxo-5,6-dihydro-4H-4lambda6-[1,4,3]oxathiazin-5-yl}-pyridin-2-yl)-benzamide] | 0.006
3 | C[C@H](NC1=NS(=O)(=O)[C@@H](c2ccc(-c3cncc(C(N)=O)c3)cc2)C(C)(C)O1)c1ccccc1F [Example 177, 5-(4-{(S)-2-[(S)-1-(2-fluorophenyl)-ethylamino]-6,6-dimethyl-4,4-dioxo-5,6-dihydro-4H-4lambda6-[1,4,3]oxathiazin-5-yl}-phenyl)-nicotinamide] | 0.017
4 | C[C@H](NC1=NS(=O)(=O)[C@H](c2ccc(-c3cncc(C(N)=O)c3)cc2)C(C)(C)O1)c1ccccc1F [Example 178, 5-(4-{(R)-2-[(S)-1-(2-fluorophenyl)-ethylamino]-6,6-dimethyl-4,4-dioxo-5,6-dihydro-4H-4lambda6-[1,4,3]oxathiazin-5-yl}-phenyl)-nicotinamide] | 0.003
5 | C[C@H](NC1=NS(=O)(=O)C(c2cccc(C3CCN(C)CC3)c2)C(C)(C)O1)c1ccccc1F (stereo partly drawn) [Example 179, {6,6-Dimethyl-5-[3-(1-methyl-piperidin-4-yl)-phenyl]-4,4-dioxo-5,6-dihydro-4H-4lambda6-[1,4,3]oxathiazin-2-yl}-[(S)-1-(2-fluorophenyl)-ethyl]-amine] | 0.034
6 | C[C@H](NC1=NS(=O)(=O)C(c2ccc(-c3cccc(C(N)=O)c3)nc2)C(C)(C)O1)c1ccccc1F (stereo partly drawn) [Example 180, 3-(5-{2-[(S)-1-(2-fluorophenyl)-ethylamino]-6,6-dimethyl-4,4-dioxo-5,6-dihydro-4H-41ambda6-[1,4,3]oxathiazin-5-yl}-pyridin-2-yl)-benzamide] | 0.01
7 | C[C@H](NC1=NS(=O)(=O)C(c2ccc(-c3cccc(C(N)=O)c3)nc2)C(C)(C)O1)c1ccccc1F (stereo partly drawn) [Example 181, 3-(5-{2-[(S)-1-(2-fluorophenyl)-ethylamino]-6,6-dimethyl-4,4-dioxo-5,6-dihydro-4H-4lambda6-[1,4,3]oxathiazin-5-yl}-pyridin-2-yl)-benzamide] | 0.007
8 | CC1(C)OC(N[C@@H](CCO)c2ccccc2F)=NS(=O)(=O)[C@H]1c1ccc(-c2ccnc(C#N)c2)cc1 [Example 184, 4-(4-{(S)-2-[(S)-1-(2-fluorophenyl)-3-hydroxy-propylamino]-6,6-dimethyl-4,4-dioxo-5,6-dihydro-4H-4lambda6-[1,4,3]oxathiazin-5-yl}-phenyl)-pyridine-2-carbonitrile] | 0.003
9 | CC1(C)OC(N[C@@H](CCO)c2ccccc2F)=NS(=O)(=O)[C@@H]1c1ccc(-c2ccnc(C#N)c2)cc1 [Example 185, 4-(4-{(R)-2-[(S)-1-(2-fluorophenyl)-3-hydroxy-propylamino]-6,6-dimethyl-4,4-dioxo-5,6-dihydro-4H-4lambda6-[1,4,3]oxathiazin-5-yl}-phenyl)-pyridine-2-carbonitrile] | 0.004

Results, then the compound that gave them:

Row | IC50 [µM] | SMILES
10 | 0.011 | C[C@H](NC1=NS(=O)(=O)[C@@H](c2ccc(-c3ccnc(C#N)c3)cc2)C(C)(C)O1)c1ccccc1F [Example 186, 4-(4-{(S)-2-[(S)-1-(2-fluorophenyl)-ethylamino]-6,6-dimethyl-4,4-dioxo-5,6-dihydro-4H-4lambda6-[1,4,3]oxathiazin-5-yl}-phenyl)-pyridine-2-carbonitrile]
11 | 0.005 | C[C@H](NC1=NS(=O)(=O)[C@H](c2ccc(-c3ccnc(C#N)c3)cc2)C(C)(C)O1)c1ccccc1F [Example 187, 4-(4-{(R)-2-[(S)-1-(2-fluorophenyl)-ethylamino]-6,6-dimethyl-4,4-dioxo-5,6-dihydro-4H-4lambda6-[1,4,3]oxathiazin-5-yl}-phenyl)-pyridine-2-carbonitrile]
12 | 0.007 | CC1(C)OC(N[C@@H](CCO)c2ccccc2F)=NS(=O)(=O)[C@H]1c1ccc(-c2ccnc(C(N)=O)c2)cc1 [Example 188, 4-(4-{(S)-2-[(S)-1-(2-fluorophenyl)-3-hydroxy-propylamino]-6,6-dimethyl-4,4-dioxo-5,6-dihydro-4H-4lambda6-[1,4,3]oxathiazin-5-yl}-phenyl)-pyridine-2-carboxamide]
13 | 0.005 | CC1(C)OC(N[C@@H](CCO)c2ccccc2F)=NS(=O)(=O)[C@@H]1c1ccc(-c2ccnc(C(N)=O)c2)cc1 [Example 189, 4-(4-{(R)-2-[(S)-1-(2-fluorophenyl)-3-hydroxy-propylamino]-6,6-dimethyl-4,4-dioxo-5,6-dihydro-4H-4lambda6-[1,4,3]oxathiazin-5-yl}-phenyl)-pyridine-2-carboxamide]
14 | 0.331 | C[C@H](NC1=NS(=O)(=O)C(c2ccc(-c3ccnc(C#N)c3)nc2)C(C)(C)O1)c1ccccc1F (stereo partly drawn) [Example 190, 5-{2-[(S)-1-(2-fluorophenyl)-ethylamino]-6,6-dimethyl-4,4-dioxo-5,6-dihydro-4H-4lambda6-[1,4,3]oxathiazin-5-yl}-[2,4′]bipyridinyl-2′-carbonitril]
15 | 0.46 | C[C@H](NC1=NS(=O)(=O)C(c2ccc(-c3ccnc(C#N)c3)nc2)C(C)(C)O1)c1ccccc1F (stereo partly drawn) [Example 191, 5-{2-[(S)-1-(2-fluorophenyl)-ethylamino]-6,6-dimethyl-4,4-dioxo-5,6-dihydro-4H-4lambda6-[1,4,3]oxathiazin-5-yl}-[2,4′]bipyridinyl-2′-carbonitril]
16 | 0.252 | C[C@H](NC1=NS(=O)(=O)C(c2cccc(C(=O)N3CCOCC3)c2)C(C)(C)O1)c1ccccc1F (stereo partly drawn) [Example 192, (3-{2-[(S)-1-(2-fluorophenyl)-ethylamino]-6,6-dimethyl-4,4-dioxo-5,6-dihydro-4H-4lambda6-[1,4,3]oxathiazin-5-yl}-phenyl)-morpholin-4-yl-methanone]
17 | 0.476 | C[C@H](NC1=NS(=O)(=O)C(c2cccc(C(=O)N3CCCN(C)CC3)c2)C(C)(C)O1)c1ccccc1F (stereo partly drawn) [Example 193, (3-{2-[(S)-1-(2-fluorophenyl)-ethylamino]-6,6-dimethyl-4,4-dioxo-5,6-dihydro-4H-4lambda6-[1,4,3]oxathiazin-5-yl}-phenyl)-(4-methyl-[1,4]diazepan-1-yl)-methanone]
18 | 0.014 | C[C@H](NC1=NS(=O)(=O)C(c2cccc(C(=O)NCc3ccccn3)c2)C(C)(C)O1)c1ccccc1F (stereo partly drawn) [Example 194, 3-{2-[(S)-1-(2-fluorophenyl)-ethylamino]-6,6-dimethyl-4,4-dioxo-5,6-dihydro-4H-4lambda6-[1,4,3]oxathiazin-5-yl}-N-pyridin-2-ylmethyl-benzamide]
19 | 0.04 | C[C@H](NC1=NS(=O)(=O)C(c2ccc(-c3ccc4nc(N)sc4c3)cc2)C(C)(C)O1)c1ccccc1F (stereo partly drawn) [Example 195, 6-(4-{2-[(S)-1-(2-fluorophenyl)-ethylamino]-6,6-dimethyl-4,4-dioxo-5,6-dihydro-4H-4lambda6-[1,4,3]oxathiazin-5-yl}-phenyl)-benzothiazol-2-ylamine]
20 | 0.007 | C[C@H](NC1=NS(=O)(=O)C(c2ccc(-c3cnc(N)nc3)cc2)C(C)(C)O1)c1ccccc1F (stereo partly drawn) [Example 196, {5-[4-(2-Amino-pyrimidin-5-yl)-phenyl]-6,6-dimethyl-4,4-dioxo-5,6-dihydro-4H-4lambda6-[1,4,3]oxathiazin-2-yl}-[(S)-1-(2-fluorophenyl)-ethyl]-amine]

Source: patent US8895547B2, “Substituted phenyl-oxathiazine derivatives, method for producing them, drugs containing said compounds and the use thereof” (Sanofi, priority 2011, dated 2014)
